In ChEMBL document CHEMBL3046493, “Alpha2-Adrenergic Receptors in Intestinal Epithelial Cells: Mechanisms of Signaling, Role, and Regulation” (Med Chem Res, 2004):

Molecular target: Nischarin (Rattus norvegicus, UniProt Q4G017)
Test: Binding affinity to I1 imidazoline binding site in Rattus norvegicus (rat) PC12 cells
Assay type: cell-based, PC-12

Chain of Nischarin (Q4G017 whole entry): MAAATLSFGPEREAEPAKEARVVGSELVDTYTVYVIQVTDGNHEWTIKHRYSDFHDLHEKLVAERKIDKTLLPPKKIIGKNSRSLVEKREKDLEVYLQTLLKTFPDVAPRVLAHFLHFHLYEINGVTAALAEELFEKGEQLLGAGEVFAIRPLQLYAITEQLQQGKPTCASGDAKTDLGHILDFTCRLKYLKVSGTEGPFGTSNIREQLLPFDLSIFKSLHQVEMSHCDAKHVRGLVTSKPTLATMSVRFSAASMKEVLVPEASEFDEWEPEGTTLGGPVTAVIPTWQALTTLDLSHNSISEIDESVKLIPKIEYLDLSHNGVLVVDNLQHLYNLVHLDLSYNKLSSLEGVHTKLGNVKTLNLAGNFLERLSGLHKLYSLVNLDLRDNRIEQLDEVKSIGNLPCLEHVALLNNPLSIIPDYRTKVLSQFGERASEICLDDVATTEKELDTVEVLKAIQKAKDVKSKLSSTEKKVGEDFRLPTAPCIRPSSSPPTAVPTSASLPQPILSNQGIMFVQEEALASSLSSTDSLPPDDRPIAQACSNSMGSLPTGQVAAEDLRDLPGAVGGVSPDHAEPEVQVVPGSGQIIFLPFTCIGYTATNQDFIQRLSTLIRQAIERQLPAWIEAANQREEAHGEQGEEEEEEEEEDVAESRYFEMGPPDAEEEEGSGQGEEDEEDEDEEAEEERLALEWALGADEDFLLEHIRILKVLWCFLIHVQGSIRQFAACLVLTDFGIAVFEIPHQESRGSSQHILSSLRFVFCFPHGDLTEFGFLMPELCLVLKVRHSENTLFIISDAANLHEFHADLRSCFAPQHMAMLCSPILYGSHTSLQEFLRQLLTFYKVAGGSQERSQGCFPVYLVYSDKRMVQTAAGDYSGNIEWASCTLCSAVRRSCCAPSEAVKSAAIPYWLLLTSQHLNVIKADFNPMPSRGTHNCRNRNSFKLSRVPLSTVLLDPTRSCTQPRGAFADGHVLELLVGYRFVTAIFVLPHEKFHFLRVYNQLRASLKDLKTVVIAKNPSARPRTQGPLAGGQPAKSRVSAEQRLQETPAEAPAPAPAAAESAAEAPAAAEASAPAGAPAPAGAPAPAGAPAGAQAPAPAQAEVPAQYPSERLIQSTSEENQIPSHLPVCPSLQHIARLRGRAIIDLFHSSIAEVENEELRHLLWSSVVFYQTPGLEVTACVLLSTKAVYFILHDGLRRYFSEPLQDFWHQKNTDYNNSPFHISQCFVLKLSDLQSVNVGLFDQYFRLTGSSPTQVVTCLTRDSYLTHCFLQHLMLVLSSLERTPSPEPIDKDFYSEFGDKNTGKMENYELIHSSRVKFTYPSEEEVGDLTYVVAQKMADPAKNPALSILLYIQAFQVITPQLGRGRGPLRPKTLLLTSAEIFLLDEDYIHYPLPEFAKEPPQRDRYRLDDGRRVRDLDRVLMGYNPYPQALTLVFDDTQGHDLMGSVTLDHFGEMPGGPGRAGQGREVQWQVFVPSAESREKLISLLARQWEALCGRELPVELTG

| Structure (SMILES) | Ki [nM] |
| --- | --- |
| Clc1cccc2c1CN(NC1=NCCN1)C2 | 6.92 |
| c1ccc(-c2ccccc2OCC2=NCCN2)cc1 | 2.34 |
| C[C@H](CC1=NCCN1)c1ccccc1 | 589 |
| C[C@@H](CC1=NCCN1)c1ccccc1 | 7240 |
| C[C@@H](Oc1ccccc1-c1ccccc1)C1=NCCN1 | 3.98 |
| C1CN=C(NC(C2CC2)C2CC2)C1 | 513 |
| c1ccc(-c2ccccc2NCC2=NCCN2)cc1 | 0.933 |
| C[C@H](Oc1ccccc1-c1ccccc1)C1=NCCN1 | 129 |
| c1ccc(C(CC2=NCCN2)c2ccccc2)cc1 | 3090 |
| c1ccc(-c2ccccc2CCC2=NCCN2)cc1 | 3240 |
| c1ccc([C@@H]2C[C@H]2C2=NCCN2)cc1 | 347 |
| c1ccc([C@H]2C[C@@H]2C2=NCCN2)cc1 | 11.7 |
| c1ccc2cc(C3=NCCN3)ccc2c1 [BENAZOLINE] | 1.29 |
| c1ccc(C2CC2)c(OCC2=NCCN2)c1 [CIRAZOLINE] | 1740 |
| Clc1cccc(Cl)c1N=C1NCCN1 [CLONIDINE] | 112 |
| c1ccc2c(CC3=NCCN3)cccc2c1 [NAPHAZOLINE] | 245 |
| c1ccc(NCC2=NCCN2)cc1 [PHENAMAZOLINE] | 0.501 |
| c1ccc(CCC2=NCCN2)cc1 [PHENYZOLINE] | 3720 |
| Clc1cc(I)cc(Cl)c1N=C1NCCN1 [PI-CLONIDINE] | 0.0339 |
| C1COC(NC(C2CC2)C2CC2)=N1 [RILMENIDINE] | 11.2 |
| C(=C\c1ccccc1)/C1=NCCN1 [TRACIZOLINE] | 18.6 |
